Laboratory results from patent US12146004B2, “Polymyxin compounds and uses thereof” (priority 2014, dated 2024).
Values after ≈ are worked out from the molar mass of the structure shown. Read-outs that look alike come from different tables or passages of the source. Bridge positions count the residues as written; N and C are the ends. Square brackets hold non-standard residues; d marks the D form. Peptide text beside a SMILES is read from it. * marks the point of attachment. ξ: configuration not given here. X13 = NCC[C@H](OCc1ccc(Cl)cc1)C(=O)*; dCha = N[C@H](CC1CCCCC1)C(=O)O; Thr(3ξ) = CC(O)[C@H](N)C(=O)O; X7 = NCC(CC(=O)*)c1ccccc1; Dab = NCC[C@H](N)C(=O)O; Dap = NC[C@H](N)C(=O)O

Columns and labels:
Format in all cases: cell-based
[1] = system: Escherichia coli
Method in brief: (§1)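 Each compound was tested against a panel of up to nine strains per Gram-negative species. The panel included strains that show elevated MICs to Polymyxin. Activity was recorded as MIC in μg/mL.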

[2] = system: Acinetobacter baumannii
Method in brief: as §1

[3] = system: Pseudomonas aeruginosa
Method in brief: as §1

[4] = system: Klebsiella pneumoniae
Method in brief: as §1

[5] = system: HK-2 cells
Excerpt: Values are reported relative to Polymyxin B.

MIC E. coli 058 [1] [µg/mL]	MIC E. coli 061 [1] [µg/mL]	MIC E. coli ATCC 25922 [1] [µg/mL]	MIC A. baumanii 053 [2] [µg/mL]	MIC A. baumanii 056 [2] [µg/mL]	MIC A. baumanii ATCC BAA-747 [2] [µg/mL]	MIC P. aeruginosa 068 [3] [µg/mL]	MIC P. aeruginosa 070 [3] [µg/mL]	MIC P. aeruginosa ATCC 27853 [3] [µg/mL]	MIC K. pneumoniae 063 [4] [µg/mL]	MIC K. pneumoniae 065 [4] [µg/mL]	HK-2 IC50 [5] [µg/mL]	MIC E. coli 059 [1] [µg/mL]	MIC E. coli 060 [1] [µg/mL]	MIC K. pneumoniae 062 [4] [µg/mL]	MIC K. pneumoniae 064 [4] [µg/mL]	MIC K. pneumoniae 066 [4] [µg/mL]	MIC K. pneumoniae 067 [4] [µg/mL]	MIC K. pneumoniae ATCC 4352 [4] [µg/mL]	Compound	further results
2 (≈ 1.69 µM)	16 (≈ 13.5 µM)	0.125 (≈ 0.106 µM)	32 (≈ 27.1 µM)	32 (≈ 27.1 µM)	0.125 (≈ 0.106 µM)	4 (≈ 3.39 µM)	4 (≈ 3.39 µM)	0.25 (≈ 0.212 µM)	16 (≈ 13.5 µM)	2 (≈ 1.69 µM)	52	–	–	–	–	–	–	–	CC(C)C[C@@H]1NC(=O)[C@@H](CC2CCCCC2)NC(=O)[C@H](CCN)NC(=O)[C@@H](NC(=O)[C@H](CN)NC(=O)[C@@H](NC(=O)[C@H](CCN)OCc2ccc(Cl)cc2)[C@@H](C)O)CCNC(=O)[C@H]([C@@H](C)O)NC(=O)[C@H](CCN)NC(=O)[C@H](CCN)NC1=O [Example 74, (S)-4-amino-2-((4-chlorobenzyl)oxy) butanoyl L-Thr-L-Dap-polymyxin [D-cyclohexylalanine]-6 heptapeptide.] (X13-T[Dap][Dab][Dab][dCha]L[Dab][Dab]T; lactam 3-C)	MIC A. baumanii NCTC 13424 [2]: 0.125 µg/mL (≈ 0.106 µM); MIC P. aeruginosa CCUG 59347 [3]: 0.25 µg/mL (≈ 0.212 µM); MIC K. pneumoniae ATCC 13882 [4]: 0.25 µg/mL (≈ 0.212 µM)
–	–	–	–	–	–	–	–	–	–	–	–	–	–	–	–	–	–	–	CC(C)C[C@@H]1NC(=O)[C@@H](CC2CCCCC2)NC(=O)[C@H](CCN)NC(=O)[C@@H](NC(=O)[C@H](CN)NC(=O)[C@@H](NC(=O)CC(CN)c2ccccc2)C(C)O)CCNC(=O)[C@H]([C@@H](C)O)NC(=O)[C@H](CCN)NC(=O)[C@H](CCN)NC1=O (stereo partly drawn) [Example 39, 4-amino-3-phenylbutanoyl L-Thr-L-Dap-polymyxin [D-cyclohexylalanine]-6 heptapeptide.] (X7-[Thr(3ξ)][Dap][Dab][Dab][dCha]L[Dab][Dab]T; lactam 3-C)	MIC E. coli 058 ([1]; strain 058): 4 µg/mL (≈ 3.58 µM); MIC E. coli 061 ([1]; strain 061): 32 µg/mL (≈ 28.7 µM); MIC E. coli ATCC 25922 ([1]; strain ATCC 25922): 0.125 µg/mL (≈ 0.112 µM); MIC E. coli NCTC 9001 ([1]; strain NCTC 9001): 0.06 µg/mL (≈ 0.0537 µM); MIC A. baumanii 053 ([2]; strain 053): 32 µg/mL (≈ 28.7 µM); MIC A. baumanii 056 ([2]; strain 056): 64 µg/mL (≈ 57.3 µM); MIC A. baumanii ATCC BAA-747 ([2]; strain ATCC BAA-747): 0.06 µg/mL (≈ 0.0537 µM); MIC A. baumanii NCTC 13424 ([2]; strain NCTC 13424): 0.03 µg/mL (≈ 0.0269 µM); MIC P. aeruginosa 068 ([3]; strain 068): 4 µg/mL (≈ 3.58 µM); MIC P. aeruginosa 070 ([3]; strain 070): 4 µg/mL (≈ 3.58 µM); MIC P. aeruginosa ATCC 27853 ([3]; strain ATCC 27853): 0.5 µg/mL (≈ 0.448 µM); MIC P. aeruginosa CCUG 59347 ([3]; strain CCUG 59347): 0.5 µg/mL (≈ 0.448 µM); MIC K. pneumoniae 063 ([4]; strain 063): 64 µg/mL (≈ 57.3 µM); MIC K. pneumoniae 065 ([4]; strain 065): 4 µg/mL (≈ 3.58 µM); MIC K. pneumoniae ATCC 13882 ([4]; strain ATCC 13882): 0.125 µg/mL (≈ 0.112 µM); HK-2 IC50 ([5]; HK-2 cells): 337 µg/mL
1 (≈ 0.801 µM)	2 (≈ 1.6 µM)	2 (≈ 1.6 µM)	4 (≈ 3.2 µM)	4 (≈ 3.2 µM)	1 (≈ 0.801 µM)	2 (≈ 1.6 µM)	2 (≈ 1.6 µM)	2 (≈ 1.6 µM)	8 (≈ 6.41 µM)	1 (≈ 0.801 µM)	4	1 (≈ 0.801 µM)	2 (≈ 1.6 µM)	2 (≈ 1.6 µM)	2 (≈ 1.6 µM)	4 (≈ 3.2 µM)	4 (≈ 3.2 µM)	1 (≈ 0.801 µM)	CCCCCCCCC1CNCC1C(=O)N[C@H](C(=O)N[C@@H](CCN)C(=O)N[C@H]1CCNC(=O)[C@H]([C@@H](C)O)NC(=O)[C@H](CCN)NC(=O)[C@H](CCN)NC(=O)[C@H](CC(C)C)NC(=O)[C@@H](Cc2ccccc2-c2ccccc2)NC(=O)[C@H](CCN)NC1=O)C(C)O (single isomer, unassigned; isomer 2) [Example 10, trans-4-octylpyrrolidine-3-carbonyl polymyxin [D-(2-phenyl)Phe]-6] nonapeptide. Isomer 2]	–
0.25 (≈ 0.209 µM)	1 (≈ 0.837 µM)	0.125 (≈ 0.105 µM)	8 (≈ 6.69 µM)	–	0.125 (≈ 0.105 µM)	1 (≈ 0.837 µM)	1 (≈ 0.837 µM)	0.25 (≈ 0.209 µM)	4 (≈ 3.35 µM)	0.5 (≈ 0.418 µM)	54	1 (≈ 0.837 µM)	1 (≈ 0.837 µM)	8 (≈ 6.69 µM)	1 (≈ 0.837 µM)	1 (≈ 0.837 µM)	8 (≈ 6.69 µM)	0.125 (≈ 0.105 µM)	CC(C)CC1CNCC(C(=O)N[C@H](C(=O)N[C@@H](CN)C(=O)N[C@H]2CCNC(=O)[C@H]([C@@H](C)O)NC(=O)[C@H](CCN)NC(=O)[C@H](CCN)NC(=O)[C@H](CC(C)C)NC(=O)[C@@H](Cc3ccc(Br)cc3)NC(=O)[C@H](CCN)NC2=O)C(C)O)C1 (single isomer, unassigned; isomer 2) [Example 12, (trans-5-(isobutyl-piperidine)-3-carbonyl L-Thr-L-Dap-polymyxin [D-(4-bromo Phe)]-6] heptapeptide Isomer 2]	–
